Measurements published in PubChem BioAssay AID248 (DTP/NCI, 2004).
Several values for one entry are separate records, joined by “and”; a condition that tells them apart may be missing. Identical values can stand only once. Inconclusive results and toxic doses are left out.

System: L1210 leukemia ip in BDF1 mice, survival T/C
Assay: NCI In Vivo Anticancer Drug Screen. Data for tumor model L1210 Leukemia (intraperitoneal) in B6D2F1 (BDF1) mice
Settings: higher = longer survival
Summary of the method: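 Tumor cells were implanted, animals were treated, and survival was followed. The result divides the treated measurement by the vehicle-control measurement.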

N=c1ccn2c(n1)OC1C(OP(=O)(O)O)C(CO)OC12 (stereo not drawn)
T/C (endpoint: mean survival time, dose: 5.0 mg/kg/injection, schedule: Q01DX009 (ip), vehicle: saline): 115 % of control
T/C (endpoint: mean survival time, dose: 25.0 mg/kg/injection, schedule: Q01DX009 (oral), vehicle: saline): 172 % of control
T/C (endpoint: mean survival time, dose: 40.0 mg/kg/injection, schedule: Q01DX009 (ip), vehicle: saline): 152 % of control
T/C (endpoint: mean survival time, dose: 50.0 mg/kg/injection, schedule: Q01DX009 (oral), vehicle: saline): 167 % of control
T/C (endpoint: mean survival time, dose: 80.0 mg/kg/injection, schedule: Q01DX009 (ip), vehicle: saline): 175 % of control
T/C (endpoint: mean survival time, dose: 100.0 mg/kg/injection, schedule: Q01DX005 (ip), vehicle: saline): 152 % of control and 160 % of control
T/C (endpoint: mean survival time, dose: 100.0 mg/kg/injection, schedule: Q01DX009 (ip), vehicle: saline): 184 % of control and 185 % of control
T/C (endpoint: mean survival time, dose: 100.0 mg/kg/injection, schedule: Q01DX009 (oral), vehicle: saline): 190 % of control
T/C (endpoint: mean survival time, dose: 160.0 mg/kg/injection, schedule: Q01DX009 (ip), vehicle: saline): 164 % of control
T/C (endpoint: mean survival time, dose: 200.0 mg/kg/injection, schedule: Q01DX005 (ip), vehicle: saline): 168 % of control and 178 % of control
T/C (endpoint: mean survival time, dose: 200.0 mg/kg/injection, schedule: Q01DX009 (ip), vehicle: saline): 163 % of control and 195 % of control
T/C (endpoint: mean survival time, dose: 200.0 mg/kg/injection, schedule: Q01DX009 (oral), vehicle: saline): 201 % of control
T/C (endpoint: mean survival time, dose: 400.0 mg/kg/injection, schedule: Q01DX009 (ip), vehicle: saline): 192 % of control and 212 % of control
T/C (endpoint: mean survival time, dose: 400.0 mg/kg/injection, schedule: Q01DX009 (oral), vehicle: saline): 245 % of control
T/C (endpoint: mean survival time, dose: 800.0 mg/kg/injection, schedule: Q01DX009 (oral), vehicle: saline): 260 % of control
T/C (endpoint: median survival time, dose: 12.5 mg/kg/injection, schedule: Q01DX009 (oral), vehicle: saline): 109 % of control
T/C (endpoint: median survival time, dose: 12.5 mg/kg/injection, schedule: Q03HX008 (oral), vehicle: water): 111 % of control
T/C (endpoint: median survival time, dose: 25.0 mg/kg/injection, schedule: Q01DX009 (oral), vehicle: saline): 109 % of control
T/C (endpoint: median survival time, dose: 25.0 mg/kg/injection, schedule: Q03HX008 (oral), vehicle: water): 111 % of control
T/C (endpoint: median survival time, dose: 25.0 mg/kg/injection, schedule: Q03HX024 (oral), vehicle: water): 172 % of control
T/C (endpoint: median survival time, dose: 50.0 mg/kg/injection, schedule: Q01DX009 (oral), vehicle: saline): 109 % of control
T/C (endpoint: median survival time, dose: 50.0 mg/kg/injection, schedule: Q01DX009 (oral), vehicle: water): 150 % of control
T/C (endpoint: median survival time, dose: 50.0 mg/kg/injection, schedule: Q03HX024 (oral), vehicle: water): 188 % of control
T/C (endpoint: median survival time, dose: 100.0 mg/kg/injection, schedule: Q01DX009 (oral), vehicle: water): 166 % of control
T/C (endpoint: median survival time, dose: 100.0 mg/kg/injection, schedule: Q03HX024 (oral), vehicle: water): 194 % of control
T/C (endpoint: median survival time, dose: 200.0 mg/kg/injection, schedule: Q01DX001 (oral), vehicle: saline): 100 % of control
T/C (endpoint: median survival time, dose: 200.0 mg/kg/injection, schedule: Q01DX001 (oral), vehicle: water): 116 % of control
T/C (endpoint: median survival time, dose: 200.0 mg/kg/injection, schedule: Q01DX009 (oral), vehicle: water): 188 % of control
T/C (endpoint: median survival time, dose: 200.0 mg/kg/injection, schedule: Q03HX008 (oral), vehicle: water): 161 % of control
T/C (endpoint: median survival time, dose: 200.0 mg/kg/injection, schedule: Q03HX024 (oral), vehicle: water): 200 % of control
T/C (endpoint: median survival time, dose: 400.0 mg/kg/injection, schedule: Q01DX001 (oral), vehicle: saline): 90 % of control
T/C (endpoint: median survival time, dose: 400.0 mg/kg/injection, schedule: Q01DX001 (oral), vehicle: water): 122 % of control
T/C (endpoint: median survival time, dose: 400.0 mg/kg/injection, schedule: Q01DX009 (oral), vehicle: saline): 177 % of control
T/C (endpoint: median survival time, dose: 400.0 mg/kg/injection, schedule: Q01DX009 (oral), vehicle: water): 211 % of control
T/C (endpoint: median survival time, dose: 400.0 mg/kg/injection, schedule: Q03HX008 (oral), vehicle: water): 111 % of control
T/C (endpoint: median survival time, dose: 400.0 mg/kg/injection, schedule: Q03HX024 (oral), vehicle: water): 94 % of control
T/C (endpoint: median survival time, dose: 400.0 mg/kg/injection, schedule: Q04DX003 (oral), vehicle: water): 155 % of control
T/C (endpoint: median survival time, dose: 800.0 mg/kg/injection, schedule: Q01DX009 (oral), vehicle: saline): 200 % of control
T/C (endpoint: median survival time, dose: 800.0 mg/kg/injection, schedule: Q04DX003 (oral), vehicle: water): 177 % of control
T/C (endpoint: median survival time, dose: 1600.0 mg/kg/injection, schedule: Q01DX001 (oral), vehicle: saline): 154 % of control
T/C (endpoint: median survival time, dose: 1600.0 mg/kg/injection, schedule: Q04DX003 (oral), vehicle: water): 188 % of control
T/C (endpoint: median survival time, dose: 3200.0 mg/kg/injection, schedule: Q01DX001 (oral), vehicle: saline): 168 % of control
T/C (endpoint: median survival time, dose: 3200.0 mg/kg/injection, schedule: Q04DX003 (oral), vehicle: water): 166 % of control

CC(C)(Cc1ccc(F)cc1)NCc1ccccc1
T/C (endpoint: mean survival time, dose: 25.0 mg/kg/injection, schedule: Q01DX009 (ip), vehicle: Klucel (hydroxypropylcellulose) (HPC)): 92 % of control
T/C (endpoint: mean survival time, dose: 25.0 mg/kg/injection, schedule: Q04DX003 (ip), vehicle: Klucel (hydroxypropylcellulose) (HPC)): 101 % of control
T/C (endpoint: mean survival time, dose: 50.0 mg/kg/injection, schedule: Q01DX009 (ip), vehicle: Klucel (hydroxypropylcellulose) (HPC)): 95 % of control
T/C (endpoint: mean survival time, dose: 50.0 mg/kg/injection, schedule: Q04DX003 (ip), vehicle: Klucel (hydroxypropylcellulose) (HPC)): 103 % of control
T/C (endpoint: mean survival time, dose: 100.0 mg/kg/injection, schedule: Q04DX003 (ip), vehicle: Klucel (hydroxypropylcellulose) (HPC)): 88 % of control and 92 % of control

COc1cc2c(cc1OC)CN1CCc3cc(OC)c(OC)cc3C1C2 (stereo not drawn)
T/C (endpoint: mean survival time, dose: 50.0 mg/kg/injection, schedule: Q01DX009 (ip), vehicle: saline with Tween-80): 93 % of control
T/C (endpoint: mean survival time, dose: 75.0 mg/kg/injection, schedule: Q01DX001 (ip), vehicle: saline): 100 % of control
T/C (endpoint: mean survival time, dose: 100.0 mg/kg/injection, schedule: Q01DX009 (ip), vehicle: saline with Tween-80): 93 % of control
T/C (endpoint: mean survival time, dose: 150.0 mg/kg/injection, schedule: Q01DX001 (ip), vehicle: saline): 100 % of control
T/C (endpoint: mean survival time, dose: 200.0 mg/kg/injection, schedule: Q01DX009 (ip), vehicle: saline with Tween-80): 93 % of control
T/C (endpoint: mean survival time, dose: 300.0 mg/kg/injection, schedule: Q01DX001 (ip), vehicle: saline): 101 % of control

CN(C)C(=S)[S][Sn]([c]1ccccc1)([c]1ccccc1)[c]1ccccc1
T/C (endpoint: mean survival time, dose: 1.25 mg/kg/injection, schedule: Q01DX009 (ip), vehicle: saline with Tween-80): 88 % of control
T/C (endpoint: mean survival time, dose: 1.25 mg/kg/injection, schedule: Q04DX003 (ip), vehicle: saline with Tween-80): 99 % of control
T/C (endpoint: mean survival time, dose: 2.5 mg/kg/injection, schedule: Q01DX009 (ip), vehicle: saline with Tween-80): 93 % of control
T/C (endpoint: mean survival time, dose: 2.5 mg/kg/injection, schedule: Q04DX003 (ip), vehicle: saline with Tween-80): 99 % of control
T/C (endpoint: mean survival time, dose: 5.0 mg/kg/injection, schedule: Q01DX001 (ip), vehicle: steriod suspending solution): 95 % of control
T/C (endpoint: mean survival time, dose: 5.0 mg/kg/injection, schedule: Q01DX009 (ip), vehicle: Klucel (hydroxypropylcellulose) (HPC)): 101 % of control
T/C (endpoint: mean survival time, dose: 5.0 mg/kg/injection, schedule: Q01DX009 (ip), vehicle: saline with Tween-80): 106 % of control
T/C (endpoint: mean survival time, dose: 5.0 mg/kg/injection, schedule: Q04DX003 (ip), vehicle: Klucel (hydroxypropylcellulose) (HPC)): 92 % of control
T/C (endpoint: mean survival time, dose: 5.0 mg/kg/injection, schedule: Q04DX003 (ip), vehicle: saline with Tween-80): 98 % of control
T/C (endpoint: mean survival time, dose: 10.0 mg/kg/injection, schedule: Q01DX001 (ip), vehicle: steriod suspending solution): 101 % of control
T/C (endpoint: mean survival time, dose: 10.0 mg/kg/injection, schedule: Q01DX009 (ip), vehicle: Klucel (hydroxypropylcellulose) (HPC)): 92 % of control
T/C (endpoint: mean survival time, dose: 10.0 mg/kg/injection, schedule: Q04DX003 (ip), vehicle: Klucel (hydroxypropylcellulose) (HPC)): 97 % of control
T/C (endpoint: mean survival time, dose: 20.0 mg/kg/injection, schedule: Q01DX009 (ip), vehicle: Klucel (hydroxypropylcellulose) (HPC)): 103 % of control
T/C (endpoint: mean survival time, dose: 20.0 mg/kg/injection, schedule: Q04DX003 (ip), vehicle: Klucel (hydroxypropylcellulose) (HPC)): 91 % of control
T/C (endpoint: mean survival time, dose: 40.0 mg/kg/injection, schedule: Q01DX001 (ip), vehicle: steriod suspending solution): 92 % of control

O=C1C(Br)=C(C2CCCCC2)C(=O)c2ccccc21
T/C (endpoint: mean survival time, dose: 50.0 mg/kg/injection, schedule: Q01DX001 (ip), vehicle: carboxymethylcellulose (CMC)): 97 % of control
T/C (endpoint: mean survival time, dose: 100.0 mg/kg/injection, schedule: Q01DX001 (ip), vehicle: carboxymethylcellulose (CMC)): 116 % of control
T/C (endpoint: mean survival time, dose: 200.0 mg/kg/injection, schedule: Q01DX001 (ip), vehicle: carboxymethylcellulose (CMC)): 103 % of control

CCCCCCCCC1SC1CCCCCCCC(=O)O (stereo not drawn)
T/C (endpoint: mean survival time, dose: 100.0 mg/kg/injection, schedule: Q04DX002 (ip), vehicle: Klucel (hydroxypropylcellulose) (HPC)): 103 % of control
T/C (endpoint: mean survival time, dose: 200.0 mg/kg/injection, schedule: Q04DX002 (ip), vehicle: Klucel (hydroxypropylcellulose) (HPC)): 100 % of control
T/C (endpoint: mean survival time, dose: 400.0 mg/kg/injection, schedule: Q04DX002 (ip), vehicle: Klucel (hydroxypropylcellulose) (HPC)): 95 % of control

Cc1ccc2nc(/C=C/c3ccc(N(C)C)cc3)cc(C)c2c1
T/C (endpoint: mean survival time, dose: 25.0 mg/kg/injection, schedule: Q01DX Z (ip), vehicle: carboxymethylcellulose (CMC)): 89 % of control
T/C (endpoint: mean survival time, dose: 100.0 mg/kg/injection, schedule: Q01DX Z (ip), vehicle: carboxymethylcellulose (CMC)): 96 % of control
T/C (endpoint: mean survival time, dose: 200.0 mg/kg/injection, schedule: Q01DX Z (ip), vehicle: carboxymethylcellulose (CMC)): 100 % of control
